The results in this text go back to ChEMBL document CHEMBL5120932, “Discovery and Optimization of Seven-Membered Lactam-Based Compounds to Phenocopy the Inhibition of the Aurora Kinase B” (ACS Med Chem Lett, 2022).

Experiment [1] concerns NCI-H23. Description: Cytotoxicity against human NCI-H23 cells assessed as reduction in cell viability measured after 6 days by MTT assay. It counts as functional, cell-based. Particulars: time 6.0 day. On the technique in general: Tetrazolium dyes change colour on reduction, which living cells bring about.
Another experiment has as its system NCI-H460. Briefly: Cytotoxicity against human NCI-H460 cells assessed as reduction in cell viability measured after 6 days by MTT assay. Particulars: time 6.0 day. It counts as functional, cell-based.
A further experiment concerns NCI-H596. Description: Cytotoxicity against human NCI-H596 cells assessed as reduction in cell viability measured after 6 days by MTT assay. It counts as functional, cell-based. The conditions noted are these: time 6.0 day.
A further experiment concerns Calu-6. Briefly: Cytotoxicity against human Calu-6 cells assessed as reduction in cell viability measured after 6 days by MTT assay. It counts as functional, cell-based. The conditions noted are these: time 6.0 day.
In another experiment the test system is A549. Description: Cytotoxicity against human A549 cells assessed as reduction in cell viability measured after 6 days by MTT assay. It counts as functional, cell-based. The conditions noted are these: time 6.0 day.
Experiment [2] deals with HCT-116. Description: Cytotoxicity against human HCT-116 cells assessed as reduction in cell viability measured after 6 days by MTT assay. It counts as functional, cell-based. The conditions noted are these: time 6.0 day.
Experiment [3] deals with MDA-MB-231. Briefly: Cytotoxicity against human MDA-MB-231 cells assessed as reduction in cell viability measured after 6 days by MTT assay. It counts as functional, cell-based. The conditions noted are these: time 6.0 day.
Experiment [4] concerns NCI-N87. Description: Cytotoxicity against human NCI-N87 cells assessed as reduction in cell viability measured after 6 days by MTT assay. It counts as functional, cell-based. The conditions noted are these: time 6.0 day.
In experiment [5] the test system is DU-145. Briefly: Cytotoxicity against human DU-145 cells assessed as reduction in cell viability measured after 6 days by MTT assay. Particulars: time 6.0 day. It counts as functional, cell-based.
The nature of experiment [6]: Induction of mitotic arrest in human RPE cells over expressing H2B-GFP-fused MYC assessed as increase in polyploidy at 40 uM measured after 24 to 72 hrs by fluorescence microscopy. It counts as functional. Particulars: time 24-72 hrs.
Experiment [7] is described as follows: Induction of mitotic arrest in human RPE cells over expressing H2B-GFP-fused MYC assessed as minimum effective concentration for polyploidy measured after 24 to 72 hrs by fluorescence microscopy. It counts as functional. Particulars: time 24-72 hrs, read-out: MEC.
The test system of experiment [8] is NCI-H23. Description: Cytotoxicity against human NCI-H23 cells assessed as reduction in cell proliferation at 10 uM measured after 3 days by MTT assay. It counts as functional, cell-based. Particulars: time 3.0 day.
The subject of experiment [9] is HCT-116. Description: Cytotoxicity against human HCT-116 cells assessed as reduction in cell proliferation at 10 uM measured after 3 days by MTT assay. It counts as functional, cell-based. Particulars: time 3.0 day.
For experiment [10], the system named is MDA-MB-231. Briefly: Cytotoxicity against human MDA-MB-231 cells assessed as reduction in cell proliferation at 10 uM measured after 3 days by MTT assay. It counts as functional, cell-based. Particulars: time 3.0 day.
For experiment [11], the system named is NCI-N87. Briefly: Cytotoxicity against human NCI-N87 cells assessed as reduction in cell proliferation at 10 uM measured after 3 days by MTT assay. It counts as functional, cell-based. Particulars: time 3.0 day.
In experiment [12] the test system is DU-145. Description: Cytotoxicity against human DU-145 cells assessed as reduction in cell proliferation at 10 uM measured after 3 days by MTT assay. It counts as functional, cell-based. The conditions noted are these: time 3.0 day.

Activity calls are given as the source filed them. The calls are words filed in the database; no cut-off is given here.

For `Cc1cc(Nc2cc(N3CCN(C)CC3)nc(Sc3ccc(NC(=O)C4CC4)cc3)n2)n[nH]1`, the outcome in the experiment on NCI-H23 [1], with NCI-H460, in the experiment on NCI-H596, in the experiment on Calu-6, with A549 and in the experiment with HCT-116 [2] was Active. In addition, the result with MDA-MB-231 [3], with NCI-N87 [4] and with DU-145 [5] was Active.

Consider `COC(=O)C1=C(O)c2cc(OC)c(OC)cc2N(Cc2ccc(C)c(F)c2)C(=O)C1`, for which the Activity in [6] amounted to 90%. For the same compound, in experiment [7], the minimal effective concentration came out at 0.312 µM.

With `COc1cc(Nc2ncc3c(n2)-c2ccc(Cl)cc2C(c2c(F)cccc2OC)=NC3)ccc1C(=O)O`, the outcome in the experiment on NCI-H23 [1], with NCI-H460, in the experiment on NCI-H596, with Calu-6, with A549 and with HCT-116 [2] was Active. Also, the result in the experiment on MDA-MB-231 [3], with NCI-N87 [4] and in the experiment on DU-145 [5] was Active.

As to `COC(=O)C1=C(O)c2ccccc2N(Cc2ccc(C(C)(C)C)cc2)C(=O)C1`, the Activity in experiment [6] worked out at 5%. In addition, the minimal effective concentration in experiment [7] came to 40 µM.

Regarding `COC(=O)C1=C(O)c2ccccc2N(Cc2ccc(OC)cc2)C(=O)C1`, in [6], the Activity is reported as 80%. Further, the minimal effective concentration in [7] stood at 0.156 µM. The result in the experiment with NCI-H23 [8], with HCT-116 [9], in the experiment with MDA-MB-231 [10], in the experiment on NCI-N87 [11], in the experiment with DU-145 [12] and with NCI-H23 [1] was Active. Besides, the outcome in the experiment with NCI-H460, in the experiment on NCI-H596, with Calu-6, in the experiment with A549, with HCT-116 [2] and in the experiment on MDA-MB-231 [3] was Active. The outcome with NCI-N87 [4] and in the experiment with DU-145 [5] was Active.

Consider `COC(=O)C1=C(O)c2ccccc2N(Cc2ccc(C)c(Cl)c2)C(=O)C1`, for which the Activity in experiment [6] is listed as 100%. In experiment [7], the minimal effective concentration amounted to 5 µM.

`COC(=O)C1=C(O)c2ccccc2N(Cc2ccc(C(C)C)cc2)C(=O)C1`: in experiment [6], the Activity came to 70%. For the same compound, the minimal effective concentration in [7] came to 20 µM.

Regarding `COC(=O)C1=C(O)c2ccccc2N(Cc2cccc(C)c2)C(=O)C1`, the Activity in experiment [6] was determined as 10%. Besides, the minimal effective concentration in [7] came out at 40 µM.

On to `COc1ccc2c(c1)[C@]1(C[C@H]1c1ccc3c(/C=C/c4ccc(CN5C[C@@H](C)O[C@@H](C)C5)cc4)n[nH]c3c1)C(=O)N2`, for which the outcome in the experiment with NCI-H23 [1], in the experiment on NCI-H460, in the experiment with NCI-H596, in the experiment with Calu-6, in the experiment with A549 and with HCT-116 [2] was Active. The outcome in the experiment on MDA-MB-231 [3], with NCI-N87 [4] and in the experiment with DU-145 [5] was Active.

Consider `Cc1csc(-c2nnc(Nc3ccc(Oc4ncccc4-c4ccnc(N)n4)cc3)c3ccccc23)c1`, for which the result in the experiment on NCI-H23 [1], in the experiment on NCI-H460, in the experiment on NCI-H596, with Calu-6, with A549 and in the experiment with HCT-116 [2] was Active. The result with MDA-MB-231 [3], in the experiment with NCI-N87 [4] and in the experiment with DU-145 [5] was Active.

`COC(=O)C1=C(O)c2ccccc2N(Cc2cccc(F)c2)C(=O)C1`: the Activity in experiment [6] turned out to be 40%. In addition, the minimal effective concentration in experiment [7] worked out at 40 µM.

For the compound `COC(=O)C1=C(O)c2ccccc2N(Cc2ccc(C#N)cc2)C(=O)C1`, the Activity in experiment [6] is 10%. Further, in experiment [7], the minimal effective concentration was 40 µM.

With `CCc1ccc(CN2C(=O)CC(C(=O)OC)=C(O)c3ccccc32)cc1`, the Activity in experiment [6] was found to be 10%. The minimal effective concentration in [7] is 0.078 µM. The outcome in the experiment with NCI-H23 [8], with MDA-MB-231 [10], with NCI-N87 [11], in the experiment with DU-145 [12], with NCI-H23 [1] and in the experiment on NCI-H460 was Active. In addition, the outcome in the experiment on NCI-H596, with Calu-6, in the experiment on A549, in the experiment on HCT-116 [2], in the experiment with MDA-MB-231 [3] and with NCI-N87 [4] was Active. Also, in the experiment on DU-145 [5], the result was Active.

With `CC[C@@H]1C(=O)N(C)c2cnc(Nc3ccc(C(=O)NC4CCN(C)CC4)cc3OC)nc2N1C1CCCC1`, the outcome with NCI-H23 [1], in the experiment with NCI-H460, in the experiment with NCI-H596, in the experiment with Calu-6, in the experiment on A549 and in the experiment on HCT-116 [2] was Active. Besides, the outcome in the experiment with MDA-MB-231 [3], in the experiment on NCI-N87 [4] and in the experiment on DU-145 [5] was Active.

On to `COC(=O)C1=C(O)c2ccccc2N(Cc2ccc(C)cc2C)C(=O)C1`, for which the Activity in experiment [6] came to 100%. For the same compound, the minimal effective concentration in experiment [7] is 1.25 µM.

Consider `COC(=O)C1=C(O)c2cc(F)ccc2N(Cc2ccc(C)c(F)c2)C(=O)C1`, for which the Activity in [6] is listed as 40%. In addition, the minimal effective concentration in experiment [7] came out at 0.078 µM.

Regarding `COC(=O)C1=C(O)c2ccccc2N(Cc2ccccc2)C(=O)C1`, in [6], the Activity is listed as 50%. For the same compound, in experiment [7], the minimal effective concentration came out at 40 µM.

With `COC(=O)C1=C(O)c2ccccc2N(Cc2ccc(C(F)(F)F)cc2)C(=O)C1`, in experiment [6], the Activity was found to be 30%. In addition, the minimal effective concentration in experiment [7] stood at 10 µM.

As to `COC(=O)C1=C(O)c2ccccc2N(Cc2ccc(F)cc2)C(=O)C1`, in experiment [6], the Activity was 50%. Moreover, the minimal effective concentration in [7] was 40 µM.

For `COC(=O)C1=C(O)c2scc(C)c2N(Cc2ccc(C)c(F)c2)C(=O)C1`, the Activity in [6] was 100%. Also, in experiment [7], the minimal effective concentration turned out to be 0.312 µM. In addition, the outcome in the experiment with NCI-H23 [8], in the experiment on HCT-116 [9], in the experiment with MDA-MB-231 [10], in the experiment on NCI-N87 [11] and in the experiment with DU-145 [12] was Active.

As to `COC(=O)C1=C(O)c2ccccc2N(Cc2ccc(C)cc2)C(=O)C1`, the Activity in [6] came out at 10%. The minimal effective concentration in experiment [7] was determined as 0.625 µM. For the same compound, the outcome in the experiment on NCI-H23 [8], with HCT-116 [9], with MDA-MB-231 [10], in the experiment with NCI-N87 [11] and with DU-145 [12] was Active.

`COC(=O)C1=C(O)c2ccccc2N(Cc2ccc(C)c(C)c2)C(=O)C1`: the Activity in experiment [6] is listed as 40%. Besides, the minimal effective concentration in experiment [7] came out at 20 µM.

`COC(=O)C1=C(O)c2ccccc2N(Cc2cccc(OC)c2)C(=O)C1`: the Activity in [6] is given as 20%. Also, in experiment [7], the minimal effective concentration came out at 20 µM.
